# According to patent US20040142979A1, “Heteroarylsulfonylmethyl hydroxamic acids and amides and their use as protease inhibitors” (priority 2002, published 2004):
# Key:
# [1] = molecular target: T1, Human recombinant MMP-1 (Homo sapiens, UniProt P03956); test: In vitro MMP inhibition analysis (fluorogenic peptide substrate), MMP-1; format: biochemical; conditions: human recombinant enzyme; 4 μM substrate (A); apparent Ki without substrate correction
# T1 construct: made in house; host or cells: MMP-1-transfected HT-1080 cells (spent media)
# T1 sequence (P03956 100-469): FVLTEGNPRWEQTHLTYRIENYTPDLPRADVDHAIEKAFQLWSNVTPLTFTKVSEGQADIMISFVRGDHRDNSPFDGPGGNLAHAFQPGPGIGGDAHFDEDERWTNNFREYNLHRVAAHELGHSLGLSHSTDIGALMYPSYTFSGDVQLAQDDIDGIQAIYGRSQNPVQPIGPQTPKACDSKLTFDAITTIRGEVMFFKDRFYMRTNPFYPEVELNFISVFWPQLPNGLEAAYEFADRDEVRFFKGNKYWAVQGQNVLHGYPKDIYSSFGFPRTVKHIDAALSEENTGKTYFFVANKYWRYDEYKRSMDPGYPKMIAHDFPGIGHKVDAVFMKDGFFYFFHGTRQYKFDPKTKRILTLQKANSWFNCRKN
# Protocol: (§1) Several compounds and salts were analyzed in an in vitro assay to determine their ability to inhibit the MMP cleavage of peptide substrates. Inhibition constant (Ki) were calculated from the assayed compound-MMP interactions.
# (§2) Human recombinant MMP-1, MMP-2, MMP-9, MMP-13, and MMP-14 were used in this assay. All enzymes were prepared in Assignee's laboratories following usual laboratory procedures. Protocols for the preparation and use of these enzymes are available in the scientific literature. See, e.g., Enzyme Nomenclature (Academic Press, San Diego, Calif., 1992) (and the citations therein). See also, Freije et al., J. Biol. Chem., 269(24), 16766-16773 (1994).
# The MMP-1 proenzyme was purified from the spent media of MMP-1-transfected HT-1080 cells provided by Dr. Harold Welgus of Washington University (St. Louis, Mo.). The protein was purified on a zinc chelating column.
# (§3) All MMPs were activated using 4-aminophenylmercuric acetate (“APMA”, Sigma Chemical, St. Louis, Mo.) or trypsin. MMP-9 also was activated using human recombinant MMP-3 (purified in Assignee's laboratory following standard cloning and purification techniques).
# (§4) The following fluorogenic, methoxycoumarin-containing polypeptide substrate (A) was used in the MMP inhibition assays:
# (§5) MCA-ArgProLeuGlyLeuDpaAlaArgGluArgNH2 (A)
# (§6) “MCA” is 7-methoxycoumarin-4-yl acetyl. Substrate (A) was prepared Assignee's laboratory. In the absence of MMP inhibitory activity, the substrate is cleaved at the Gly-Leu peptide bond. This cleavage separates the highly fluorogenic peptide from the 2,4-dinitrophenyl quencher, thus resulting in increase of fluorescent intensity.
# (§7) The stock solutions of the assayed compounds and salts were prepared in 1% dimethyl sulfoxide (DMSO). These stock solutions were diluted in Buffer A (100 mM Tris-HCl, 100 mM NaCl, 10 mM CaCl2, 0.05% polyoxyethylene 23 lauryl ether, pH 7.5) to obtain solutions with different compound concentrations, i.e., assay solutions with different concentrations of the assayed MMP inhibitory compound. The experiment controls contained the same amount of Buffer A/DMSO as the assayed sample, but contained none of the tested compound or salt.
# (§8) The assays from which the Ki determinations were made were performed as follows. The assayed compound samples were incubated in separate wells of untreated white polystyrene plates (Nunc Nalgene International, Rochester, N.Y.), and analyzed on a Tecan SpectraFlour Plus plate reader. The excitation wavelength was 330 nm, and the emission wavelength -420 nm. All samples (assayed compounds and controls) were incubated in separate plate wells at room temperature for 1 hr in the presence of 4 μM of MMP substrate (A). In the absence of MMP inhibitory activity, substrate (A) was cleaved at the Gly-Leu bond resulting in an increase of relative fluorescence. Inhibition was observed as a reduced rate of this increase in relative fluorescence. […] This protocol is a modification of method by Knight et al., FEBS Lett., 296(3), 263-266 (1992). Apparent inhibitory constants were determined by non-linear regression of reaction velocity as a function of inhibitor and enzyme concentration using Morrison's equation, as described by Kuzmic, P., et al., Anal. Biochem., 286(1):45-50 (2000). Modifications were made in the non-linear regression method to allow a common control reaction rate and effective enzyme concentration to be shared between all dose-response relationships on a given assay plate. Since the substrate concentration was chosen to be at or below the Km, the apparent Ki's from this analysis were reported as Ki's without correction for the influence of substrate.
# The above protocols were used to determine MMP inhibition Ki constants for the compounds in Examples 1, 2, and 4-42 above. All Ki values in Table 3 are given in nM units.
# [2] = molecular target: T2, Human recombinant MMP-13 (Homo sapiens, UniProt P45452); test: In vitro MMP inhibition analysis (fluorogenic peptide substrate), MMP-13; format: biochemical; conditions: human recombinant enzyme; 4 μM substrate (A); apparent Ki without substrate correction
# T2 construct: made in house; host or cells: baculovirus / insect cells
# Protocol: as §1, §2
# The MMP-13 was obtained as a proenzyme from a full-length cDNA clone using baculovirus, as described by V. A. Luckow, “Insect Cell Expression Technology,” Protein Engineering: Principles and Practice, pp. 183-218 (edited by J. L. Cleland et al., Wiley-Liss, Inc., 1996). The expressed proenzyme was first purified over a heparin agarose column, and then over a chelating zinc chloride column. The proenzyme was then activated by APMA for use in the assay. […] See also, O'Reilly et al, Baculovirus Expression Vectors: A Laboratory Manual (W. H. Freeman and Co., New York, N.Y., 1992). See also, King et al., The Baculovirus Expression System: A Laboratory Guide (Chapman & Hall, London, England, 1992).
# as §3, §4, §5, §6, §7
# as §8, with “Modifications were made in the non-linear regression method to allow a common control reaction rate and effective enzyme concentration to be shared between all dose-response relationships on a given assay plate.” left out
# All Ki values in Table 3 are given in nM units.
Compound,Ki [1],Ki [2]
O=C(NO)C1(S(=O)(=O)c2ccc(-c3ccc(CCC(F)(F)F)cc3)nc2)CCOCC1 [Example 68],> 10 µM,0.721 nM
O=C(NO)C1(S(=O)(=O)c2ccc3nc(-c4ccsc4)sc3c2)CCOCC1 [Example 62],2.02 µM,1.36 nM
CC(C)Cc1ncc(-c2nc3ccc(S(=O)(=O)C4(C(=O)NO)CCOCC4)cc3s2)s1 [Example 54],> 10 µM,2.73 nM
O=C(NO)C1(S(=O)(=O)c2ccc3nc(-c4ccc(SC(F)(F)F)cc4)sc3c2)CCOCC1 [Example 67],> 10 µM,0.293 nM
O=C(NO)C1(S(=O)(=O)c2ccc(-c3ccc(CCC(F)(F)C(F)(F)F)cc3)nc2)CCOCC1 [Example 69],> 10 µM,0.531 nM
O=C(NO)C1(S(=O)(=O)c2ccc(-c3ccc(OC(F)(F)C(F)F)cc3)nc2)CCOCC1 [Example 47],1.49 µM,0.306 nM
CCCCOc1ccc(-c2ccc(S(=O)(=O)C3(C(=O)NO)CCOCC3)s2)cc1 [Example 43],> 1.25 µM,0.127 nM
O=C(NO)C1(S(=O)(=O)c2ccc(-c3ccc(C(F)(F)F)cn3)s2)CCOCC1 [Example 50],> 10 µM,10.3 nM
CCCCCc1ccc(-c2ccc(S(=O)(=O)C3(C(=O)NO)CCOCC3)cn2)cc1 [Example 45],> 10 µM,1.19 nM
O=C(NO)C1(S(=O)(=O)c2ccc(-c3ccc(OC(F)(F)C(F)F)cc3)s2)CCOCC1 [Example 44],1.12 µM,0.134 nM
O=C(NO)C1(S(=O)(=O)c2ccc3nc(-c4ccc(F)c(F)c4)sc3c2)CCOCC1 [Example 60],2.84 µM,1.54 nM
CN(C(=O)c1ccc(-c2ccc(S(=O)(=O)C3(C(=O)NO)CCOCC3)cn2)cc1)c1ccccc1 [Example 78],> 10 µM,447 nM
CCCCc1ccc(C(=O)C2CCN(c3ccc(S(=O)(=O)C4(C(=O)NO)CCOCC4)cn3)CC2)s1 [Example 70],> 10 µM,1.8 nM
CC(C)CN(C)C(=O)Cc1ccc(-c2ccc(S(=O)(=O)C3(C(=O)NO)CCOCC3)cn2)cc1 [Example 71],> 10 µM,1.93 nM
O=C(NO)C1(S(=O)(=O)c2ccc(-c3ccc(OCC(F)(F)F)cc3)nc2)CCOCC1 [Example 46],4.34 µM,0.169 nM
CCOc1ccc(-c2nc3ccc(S(=O)(=O)C4(C(=O)NO)CCOCC4)cc3s2)cc1 [Example 66],> 0.312 µM,0.082 nM
O=C(NO)C1(S(=O)(=O)c2ccc3nc(-c4ccc(Cl)s4)sc3c2)CCOCC1 [Example 59],> 1.25 µM,0.588 nM
CN(C(=O)Cc1ccc(-c2ccc(S(=O)(=O)C3(C(=O)NO)CCOCC3)cn2)cc1)c1ccc(OC(F)(F)F)cc1 [Example 75],> 10 µM,140 nM
O=C(NO)C1(S(=O)(=O)c2ccc3nc(-n4cnc(-c5ccccc5)c4)sc3c2)CCOCC1 [Example 64],> 10 µM,22.1 nM
CCCCN(C)C(=O)Cc1ccc(-c2ccc(S(=O)(=O)C3(C(=O)NO)CCOCC3)cn2)cc1 [Example 74],> 10 µM,1.91 nM
O=C(NO)C1(S(=O)(=O)c2ccc3nc(-c4ccc(OC(F)(F)F)cc4)sc3c2)CCOCC1 [Example 51],6.53 µM,0.275 nM

# Second part, the compound after the results:
Ki [1],Ki [2],Compound
> 10 µM,264 nM,CN(C(=O)c1ccc(-c2ccc(S(=O)(=O)C3(C(=O)NO)CCOCC3)cn2)cc1)c1ccc(OC(F)(F)F)cc1 [Example 81]
> 10 µM,607 nM,CCN(CC)C(=O)c1ccc(-c2ccc(S(=O)(=O)C3(C(=O)NO)CCOCC3)cn2)cc1 [Example 79]
> 10 µM,1.58 nM,CCCCc1ccc(C(=O)C2CCN(c3nc4ccc(S(=O)(=O)C5(C(=O)NO)CCOCC5)cc4s3)CC2)s1 [Example 52]
1.24 µM,0.192 nM,O=C(NO)C1(S(=O)(=O)c2ccc(-c3ccc(OC(F)(F)C(F)F)cc3)nc2)CCOCC1 [Example 48]
9.16 µM,0.309 nM,COCCN1CCC(C(=O)NO)(S(=O)(=O)c2ccc3nc(-c4ccc(OC(F)(F)F)cc4)sc3c2)CC1 [Example 63]
> 1.25 µM,1.05 nM,O=C(NO)C1(S(=O)(=O)c2ccc3nc(-c4ccc5c(c4)OCO5)sc3c2)CCOCC1 [Example 65]
> 10 µM,2.94 nM,O=C(NO)C1(S(=O)(=O)c2ccc3nc(-c4ccc(F)cc4F)sc3c2)CCOCC1 [Example 61]
> 10 µM,0.336 nM,CCc1ccc(-c2nc3ccc(S(=O)(=O)C4(C(=O)NO)CCOCC4)cc3s2)cc1 [Example 58]
> 10 µM,0.314 nM,CCCc1ccc(-c2nc3ccc(S(=O)(=O)C4(C(=O)NO)CCOCC4)cc3s2)cc1 [Example 53]
> 10 µM,0.822 nM,O=C(NO)C1(S(=O)(=O)c2ccc(-c3ccc(CCC(F)(F)C(F)(F)F)cn3)s2)CCOCC1 [Example 49]
4.48 µM,0.79 nM,O=C(NO)C1(S(=O)(=O)c2ccc(-c3ccc(OC(F)(F)F)cc3)nc2)CCOCC1 [Example 84]
> 10 µM,177 nM,O=C(NO)C1(S(=O)(=O)c2ccc3nc(-c4cccc(C(F)(F)F)c4)sc3c2)CCOCC1 [Example 55]
> 10 µM,1.59 nM,O=C(Cc1ccc(-c2ccc(S(=O)(=O)C3(C(=O)NO)CCOCC3)cn2)cc1)N1CCCCC1 [Example 72]
> 10 µM,0.384 nM,O=C(NO)C1(S(=O)(=O)c2ccc3nc(-c4ccc(C(F)(F)F)cc4)sc3c2)CCOCC1 [Example 57]
